{
  "source": "patent US20200221739A1",
  "about": "“METHOD FOR REMOVAL OF ANTIBIOTIC RESIDUES FROM FOOD PRODUCTS” (The King Abdulaziz City for Science and Technology, priority 2016, published 2020)",
  "key": {"E-coli": {"test_system": "E-coli", "assay": "E-coli growth inhibition experiments", "format": "cell-based", "procedure": "With reference to FIG. 12 (top panel), two control experiments with water were conducted."}, "[1]": {"assay": "Removal of amoxicillin spiked in water, milk, eggs and chicken meat by gamma radiation, HPLC", "format": "physicochemical", "details": "for Removal percentage: 7 kGy, average across 1, 10, 20 and 50 |iM, assuming 15% error", "from_the_text": "In all the example mentioned in the foregoing, the source of gamma radiation is a Cobalt-60 gamma rays source model Gamma Cell 220 from MDS Nordion, Canada. The source of gamma radiation was calibrated using aqueous ferrous sulfate (Fricke dosimetry) solution.\nThe desired concentration of amoxicillin was spiked in water, milk, eggs, and chicken meat. 20 |iL of spiked water samples before and post irradiation treatment was directly injected in HPLC. Amoxicillin spiked in milk, eggs, and chicken meat was extracted using acetonitrile. 2 mL (milk or eggs) or 2 g (chicken meat) of the spiked samples was mixed with 5 mL acetonitrile and shaken for 10 minutes following which the samples were centrifuged for 5 minutes at a speed of 3000 rpm. 5 mL of the supernatant was evaporated in a rotary-evaporation system and the antibiotic residue was dissolved in 2 mL of double distilled water. 20 |iL of the extracted samples was injected in HPLC.\nDirect Uv-Vis measurements cannot be conducted to quantify the antibiotics in samples extracted from dairy or poultry products due to the significant chemical interference. FIG. 5 illustrates a comparison of HPLC signals of a range of amoxicillin concentration before and after irradiation with 7 kGy.\nRemoval percentage of amoxicillin in different samples with varied concentrations is reported by comparing the original concentrations with the corresponding post irradiation concentrations (i.e. before and after irradiation). FIG. 9 illustrates the average removal percentages for each sample type across the different concentration range (1, 10, 20, and 50 |iM), assuming 15% error in the observations. It was observed that there was 100% removal and decomposition of amoxicillin in water & milk samples and 80% removal of amoxicillin in eggs & chicken meat samples at a radiation dose of 7 kGy, within the permissible limits accepted by IAEA for food irradiation."}, "[2]": {"assay": "Degradation of amoxicillin by gamma radiation, 1H and 13C NMR", "format": "physicochemical", "details": "5 mg/mL in water/D2O 1:1, 7 kGy", "procedure": "Further, an additional confirmation of the degradation of amoxicillin was conducted using ^1H and ^13C NMR studies. Amoxicillin is dissolved in water and diluted at a ratio of 1:1 using D2O. A high concentration of amoxicillin (5 mg/mL) was used for this technique, with water as the NMR solvent. […] It is observed that the proton signals (at 4.5 to 4.8 ppm) of amoxicillin before irradiation are disappearing upon irradiation treatment. FIG. 11 illustrates the ^13C spectra of 5 mg/mL amoxicillin before and after irradiation treatment at 7 kGy for amoxicillin. Overall, the intensities of ^13C peaks are reduced (approximately 50%) after irradiation treatment indicating the decomposition and reduction in amoxicillin concentration in the sample."}, "[3]": {"assay": "Degradation of antibiotics in double distilled water by gamma radiation, UV-Vis absorption", "format": "physicochemical", "details": "50 |iM in double distilled water, 7 kGy gamma radiation", "experimental": "The three target antibiotics as mentioned above were dissolved in double distilled water to make desired concentrations (in 10 mL volume). […] UV-Vis absorption spectra of the studied antibiotics in solution were recorded before and after irradiation treatment at different doses.\nWith reference to FIG. 2A, the maximum absorption of doxycycline at 275 nm was plotted against the concentration."}},
  "data": [
    {"smiles": "CC1(C)S[C@@H]2[C@H](NC(=O)[C@H](N)c3ccc(O)cc3)C(=O)N2[C@H]1C(=O)O", "note": "[amoxicillin]", "values": [
      {"measurement": "Antimicrobial effect on E-coli growth", "setting": "E-coli; amoxicillin 150 |iM irradiated at 7 kGy", "result": "complete loss of antimicrobial effect"},
      {"measurement": "Antimicrobial effect on E-coli growth", "setting": "E-coli; non-irradiated amoxicillin sample", "result": "growth inhibition"},
      {"measurement": "Removal percentage", "setting": "[1]; chicken meat samples", "result": 80, "unit": "%"},
      {"measurement": "Removal percentage", "setting": "[1]; eggs samples", "result": 80, "unit": "%"},
      {"measurement": "Removal percentage", "setting": "[1]; milk samples", "result": 100, "unit": "%"},
      {"measurement": "Concentration of amoxicillin after irradiation (HPLC)", "setting": "[1]; range of concentrations, after irradiation with 7 kGy", "result": "below the detection limit of HPLC"},
      {"measurement": "Removal percentage", "setting": "[1]; water samples", "result": 100, "unit": "%"},
      {"measurement": "Reduction of intensities of 13C peaks after irradiation treatment", "setting": "[2]", "result": "approximately 50%"},
      {"measurement": "Removal (decrease of UV-Vis absorption bands) upon gamma irradiation", "setting": "[3]", "result": "completely removed"}
    ]}
  ]
}
